# From patent US20060189642A1, “Synergistic combination comprising roflumilast and an anticholinergic agent selected from ipratropium, oxitropium and tiotropium salts for the treatment of respiratory diseases” (ALTANA PHARMA AG, priority 2003, published 2006)
# Tested on: methacholine-induced bronchoconstriction in guinea pigs
# Experiment: Inhibition of methacholine-induced bronchoconstriction in anaesthetized, mechanically ventilated guinea pigs
# Assay type: in vivo, guinea pig
# Experimental: Inhibition of Methacholine-induced Bronchoconstriction in Guinea Pigs by ROFLUMILAST in combination with tiotropium-bromide
# To assess the inhibitory effect of tiotropium-bromide, ROFLUMILAST, and the combination of both compounds on methacholine-induced bronchoconstriction in anaesthetized, mechanically ventilated guinea pigs.
# Male Dunkin Hartley guinea pigs, body weight 350-450 g when performing the experiments.
# 75 min before methacholine-induced bronchospasm (at −75 min) animals were anaesthetized with urethane i.p. (1.2 g/kg). At −5 min for i.v. injections the right jugular vein and for ventilation the trachea was cannulated. At −45 min NaCl 0.9% or tiotropium-bromide was administered i.v. (1 μg/kg). At −30 min lactose (10 mg/kg) or ROFLUMILAST (4 mg/kg) mixed with lactose was administered intratracheally by a dry powder aerolizer. At −10 min pancuronium-bromide (1.5 mg/kg) was administered i.v. to abolish spontaneous breathing. Animals were mechanically ventilated with 60 breath/min and a tidal volume of 7 ml/kg. Dynamic lung compliance (COM) and airway conductance (CON) were calculated with the help of a computer system from airflow and ventilation pressure signals. At t=0 min methacholine was administered i.v. (60 μg/kg) to induce Bronchoconstriction.
# COM and CON were determined up to 120 s after methacholine-induced bronchospasm. AUCs for 0 to 120s were determined. Inhibition was calculated based on the AUC data. Data are shown as mean±SEM. Results were taken to be significant if p<0.05 versus placebo (ANOVA and Dunnett's multiple comparison test)
# [1] = male Dunkin Hartley guinea pigs, methacholine 60 μg/kg i.v., tiotropium-bromide 1 μg/kg i.v. at -45 min, ROFLUMILAST 4 mg/kg intratracheally at -30 min, inhibition versus placebo
structure (smiles),measurement,setting,value
C[N+]1(C)[C@@H]2C[C@@H](OC(=O)C(O)(c3cccs3)c3cccs3)C[C@H]1[C@@H]1O[C@@H]12 [tiotropium-bromide],"Inhibition of methacholine-induced airway conductance (CON) decrease, based on AUC 0-120 s",[1],5.9%
same,"Inhibition of methacholine-induced dynamic lung compliance (COM) decrease, based on AUC 0-120 s",[1],12%
same,Effect on methacholine-induced bronchospasm (in words),"same doses, significant if p<0.05 versus placebo (ANOVA and Dunnett's test)",no significant effect
